Key:
[1] = system: persistent (biofilm) form of Borrelia burgdorferi; test: effect on biofilm-like colonies, crystal violet staining; type: cell-based, Borrelia burgdorferi B31; settings: for efficacy against biofilm compared with combinations (Mix 1 and Mix 2): individual ingredient 0.075 mg/ml; for susceptibility of biofilm: 0.3 mg/ml, 72 hours
Experimental: (§1) Two Borrelia species, namely, Borrelia burgdorferi and Borrelia garinii were tested in this study. Low passage isolates of the B31 strain of B. burgdorferi and CIP103362 strain of B. garinii were obtained from the American Type Culture Collection (Manassas, Va.). The stocks of both species were cultured in commonly used conditions, i.e. medium such as Barbour-Stoner-Kelly H (BSK-H) supplemented with 6% rabbit serum (Sigma, St Louis, Mo.) without antibiotics at 33° C. with 5% CO2, in sterile screw-cap 15 mL polypropylene tubes with or without gentile shaking depends on type of experiment. B31 strain is an isolate from Ixodes dammini whereas CIP103362 strain is an isolate from Ixodes ricinus. Both strains are well known human pathogenic factors of Lyme disease. So far, Borrelia burgdorferi has been found in ticks from North America and Eurasia, while Borrelia garinii only in ticks in Eurasia.
(§2) The strains of B. burgdorferi and B. garinii were prepared for testing as described in the art (Sapi et al., 2011). Briefly, the strains were activated from original cryobank vials and inoculated into 10 mL BSK-H compete medium, and maintained at 33° C. For generation of homogeneous cultures of B. burgdorferi or B. garinii, bacterial cells were inoculated and maintained in a shaking incubator at 33° C. and 250 rpm, where there is no biofilm formation (Sapi et al., 2011; supported by own observation). For generation of biofilm-like colonies of B. burgdorferi or B. garinii, bacterial cells were inoculated in four-well chambers (BD Biosciences, Sparks, Md.) coated with rat-tail collagen type I and incubated for 1 week without shaking.
(§3) Evaluation of test compounds/mixtures on bacterial biofilm. Qualitative effect of the individual test compounds and their mixtures against biofilm-like colonies of B. burgdorferi and B. garinii was evaluated using commonly used and well accepted crystal violet (CV) staining method, according to protocol provided by Sapi et al. Briefly, 1×10^7 bacterial cells/mL from homogeneous cultures of spirochetes were grown on extracellular matrix proteins (i.e., collagen type I) coated four-well chambers and incubated for 1 week.
(§4) After the 1 week of incubation, biofilm-like colonies were treated with various compounds/mixtures. Control wells were treated with ethanol (i.e., 0.075-0.3 mg/ml) alone. For doxycycline, as a positive control, the final used concentration was 0.03% (v/v). The chambers were then incubated at 33° C. for 72 hours. The whole experiment was repeated three times for each strain and each concentration. Next, all wells were fixed with 500 μL of cold methanol-formalin (1:1) for 30 minutes and stained with 1 mL of crystal violet (0.1%) for 10 minutes. The biofilm-like colonies were carefully washed three times with 1×PBS and 1 mL of methanol was added to each well to extract a dye, which was measured at 595 nm wavelength.

[2] = system: persistent (biofilm) form of Borrelia garinii; test: as above; type: cell-based, Borrelia garinii CIP103362; settings: for efficacy against biofilm compared with combinations (Mix 1 and Mix 2): individual ingredient 0.075 mg/ml; for susceptibility of biofilm: 0.3 mg/ml, 72 hours
Experimental: as §1, §2, §3, §4

[3] = system: active (spirochete) form of Borrelia garinii; test: bacteriostatic/bactericidal effect on spirochetes, LIVE/DEAD BacLight (SYTO9/IP) fluorescence; type: cell-based, Borrelia garinii CIP103362; settings: individual compound 0.3 mg/ml
Experimental: as §1, with “So far, Borrelia burgdorferi has been found in ticks from North America and Eurasia, while Borrelia garinii only in ticks in Eurasia.” left out
(§5) Evaluation of bacteriostatic and bactericidal effect of individual test compounds and their mixtures on test microorganisms. To determine what compound and/or mixture will have the bacteriostatic and/or bactericidal effect a fluorescence method was used according to Sapi et al. Briefly, 5×10^6 bacterial cells/mL of the homogenous bacterial suspension was inoculated into each sterile 1.8 mL test tightly caps screwed tubes containing 1 mL BSK-H medium, supplemented with the test compound/mixture of interest. […] The tubes were then incubated at 33° C. and viability was monitored at regular intervals for up to 72 hours. […]

[4] = system: active (spirochete) form of Borrelia burgdorferi; test: as above; type: cell-based, Borrelia burgdorferi B31; settings: individual compound 0.3 mg/ml
Experimental: as §1, with “So far, Borrelia burgdorferi has been found in ticks from North America and Eurasia, while Borrelia garinii only in ticks in Eurasia.” left out
as §5

For CCCCC/C=C\C/C=C\CCCCCCCC(=O)O [linoleic acid], the “efficacy against biofilm compared with combinations (Mix 1 and Mix 2)” value [1] was “lower efficacy against biofilm than their combinations” and the “efficacy against biofilm compared with combinations (Mix 1 and Mix 2)” value [2] was “lower efficacy against biofilm than their combinations”.

With CC(C)=CCCC(C)=CC=O [citral] the susceptibility of biofilm [1] was “susceptible”, the “efficacy against biofilm compared with combinations (Mix 1 and Mix 2)” value [1] was “lower efficacy against biofilm than their combinations” and the susceptibility of biofilm [2] was “susceptible”. For the same molecule, the “efficacy against biofilm compared with combinations (Mix 1 and Mix 2)” value [2] was “lower efficacy against biofilm than their combinations”.

With C=CCc1ccc(O)c(OC)c1 [eugenol] the bactericidal effect ([3]; after 6 hours of incubation) was 50%, the bactericidal effect ([3]; after 24 hours of incubation) was 100% and the bactericidal effect ([4]; after 6 hours of incubation) was 50%. The bactericidal effect ([4]; after 24 hours of incubation) was 100%, the susceptibility of biofilm [1] was “susceptible” and the “efficacy against biofilm compared with combinations (Mix 1 and Mix 2)” value [1] was “lower efficacy against biofilm than their combinations”. For the same molecule, the susceptibility of biofilm [2] was “susceptible” and the “efficacy against biofilm compared with combinations (Mix 1 and Mix 2)” value [2] was “lower efficacy against biofilm than their combinations”.

With C=C(C)[C@@H]1CC=C(C)C(=O)C1 [R-carvone] the “efficacy against biofilm compared with combinations (Mix 1 and Mix 2)” value [1] was “lower efficacy against biofilm than their combinations” and the “efficacy against biofilm compared with combinations (Mix 1 and Mix 2)” value [2] was “lower efficacy against biofilm than their combinations”.
